Where a name gives a salt, the structure may show the parent alone. Read-outs that look alike come from different tables or passages of the source.
Columns and labels:
Format in all cases: cell-based
HIV-1 strain 92HT599 = test: Antiviral activity against HIV-1 strain 92HT599 in MT2 cells (p24 estimation); conditions: HIV-1 92HT599, ~96 hours
Summary of the method: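 Percent inhibition versus vehicle controls came from p24 quantified in supernatant aliquots. These were taken after ~96 h incubation of compound (DMSO ≤1%) with MT2 cells infected at 10 TCID50/30,000 cells.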

HIV-1 pNL4-3 V7A = test: Antiviral activity against pNL4-3/V7A strain in MT4 cells (p24 estimation); conditions: Human immunodeficiency virus 1, MT4, 96 h, read-out: pNL4-3 V7A IC50
Procedure: (§1) Example 78: Evaluation of Compounds Antiviral Activity Against pNL4-3/WT & V7A Strains in MT4 Cells
(§2) MT4 cells were Transfected with HIV-1 Plasmid (pNL4-3-WT & V7A) (Cells were incubating with required number of TCID50 of HIV-1 for 1.5 h at 37° C.). After infection, the infected cells were plated at the concentration of 3×10^4 cells per well in 96 well plate. Test compound was added to the test plate in defined format with the final concentration of DMSO is not more than 1%. Incubation was carried out in CO2 incubator for 4 days for viral infection. At the end of incubation period an aliquot from each well was taken for p24 estimation. p24 estimation was carried out using Advance biosciences kit as per the procedure detailed by supplier.

HIV-1 pNL4-3 WT = test: Antiviral activity against pNL4-3/WT strain in MT4 cells (p24 estimation); conditions: Human immunodeficiency virus 1, MT4, 96 h, read-out: pNL4-3 WT IC50
Procedure: as §1, §2

[1] = Human immunodeficiency virus 1, 0% serum binding assay, read-out: IC50 0% serum
[2] = Human immunodeficiency virus 1, 40% serum binding assay, read-out: IC50 40% serum

| Compound | IC50 (HIV-1 strain 92HT599; [1]) [µM] | IC50 (HIV-1 strain 92HT599; [2]) [µM] | IC50 (HIV-1 pNL4-3 V7A) [µM] | IC50 (HIV-1 pNL4-3 WT) [µM] |
| --- | --- | --- | --- | --- |
| CC(C)C1=C2[C@H]3CC[C@@H]4[C@@]5(C)CC[C@H](OC(=O)[C@H]6C[C@@H](C(=O)O)C6(C)C)C(C)(C)[C@@H]5CC[C@@]4(C)[C@]3(C)CC[C@@]2(NC(=O)C(C)(C)NC(=O)c2ccc(Cl)cc2)CC1=O [Example 1, (1R,3S)-3-((((3aR,5aR,5bR,7aR,9S,11aR,11bR,13aS)-3a-(2-(4-chlorobenzamido)-2-methylpropanamido)-1-isopropyl-5a,5b,8,8,11a-pentamethyl-2-oxo-3,3a,4,5,5a,5b,6,7,7a,8,9,10,11,11a,11b,12,13,13a-octadecahydro-2H-cyclopenta[a]chrysen-9-yl)oxy)carbonyl)-2,2-dimethylcyclobutane-1-carboxylic acid] | < 0.003 | < 0.05 | < 0.01 | < 0.005 |
| CC(C)C1=C2[C@H]3CC[C@@H]4[C@@]5(C)CC[C@H](OC(=O)[C@H]6C[C@@H](C(=O)O)C6(C)C)C(C)(C)[C@@H]5CC[C@@]4(C)[C@]3(C)CC[C@@]2(NC(=O)C(C)(C)NC(=O)c2cnccn2)CC1=O [Example 5, (1R,3S)-3-((((3aR,5aR,5bR,7aR,9S,11aR,11bR,13aS)-1-isopropyl-5a,5b,8,8,11a-pentamethyl-3a-(2-methyl-2-(pyrazine-2-carboxamido)propanamido)-2-oxo-3,3a,4,5,5a,5b,6,7,7a,8,9,10,11,11a,11b,12,13,13a-octadecahydro-2H-cyclopenta[a]chrysen-9-yl)oxy)carbonyl)-2,2-dimethylcyclobutane-1-carboxylic acid] | < 0.003 | 0.05 to 0.2 | < 0.01 | < 0.005 |
| Cc1cnc(C(=O)NC(C)(C)C(=O)N[C@@]23CC[C@]4(C)[C@H](CC[C@@H]5[C@@]6(C)CC[C@H](OC(=O)[C@H]7C[C@@H](C(=O)O)C7(C)C)C(C)(C)[C@@H]6CC[C@]54C)C2=C(C(C)C)C(=O)C3)cn1 [Example 7, (1R,3S)-3-((((3aR,5aR,5bR,7aR,9S,11aR,11bR,13aS)-1-isopropyl-5a,5b,8,8,11a-pentamethyl-3a-(2-methyl-2-(5-methylpyrazine-2-carboxamido)propanamido)-2-oxo-3,3a,4,5,5a,5b,6,7,7a,8,9,10,11,11a,11b,12,13,13a-octadecahydro-2H-cyclopenta[a]chrysen-9-yl)oxy)carbonyl)-2,2-dimethylcyclobutane-1-carboxylic acid] | < 0.003 | < 0.05 | < 0.01 | < 0.005 |
| Cc1nc(C)c(C(=O)NC(C)(C)C(=O)N[C@@]23CC[C@]4(C)[C@H](CC[C@@H]5[C@@]6(C)CC[C@H](OC(=O)[C@H]7C[C@@H](C(=O)O)C7(C)C)C(C)(C)[C@@H]6CC[C@]54C)C2=C(C(C)C)C(=O)C3)s1 [Example 14, (1R,3S)-3-((((3aR,5aR,5bR,7aR,9S,11aR,11bR,13aS)-3a-(2-(2,4-dimethylthiazole-5-carboxamido)-2-methylpropanamido)-1-isopropyl-5a,5b,8,8,11a-pentamethyl-2-oxo-3,3a,4,5,5a,5b,6,7,7a,8,9,10,11,11a,11b,12,13,13a-octadecahydro-2H-cyclopenta[a]chrysen-9-yl)oxy)carbonyl)-2,2-dimethylcyclobutane-1-carboxylic acid] | < 0.003 | < 0.05 | 0.01 to 0.05 | < 0.005 |
| CC(C)C1=C2[C@H]3CC[C@@H]4[C@@]5(C)CC[C@H](OC(=O)[C@H]6C[C@@H](C(=O)O)C6(C)C)C(C)(C)[C@@H]5CC[C@@]4(C)[C@]3(C)CC[C@@]2(NC(=O)C(C)(C)NC(=O)c2ccc3[nH]c(-c4cnccn4)nc3c2)CC1=O [Example 15, (1R,3S)-3-((((3aR,5aR,5bR,7aR,9S,11aR,11bR,13aS)-1-isopropyl-5a,5b,8,8,11a-pentamethyl-3a-(2-methyl-2-(2-(pyrazin-2-yl)-1H-benzo[d]imidazole-5-carboxamido)propanamido)-2-oxo-3,3a,4,5,5a,5b,6,7,7a,8,9,10,11,11a,11b,12,13,13a-octadecahydro-2H-cyclopenta[a]chrysen-9-yl)oxy)carbonyl)-2,2-dimethylcyclobutane-1-carboxylic acid] | < 0.003 | < 0.05 | > 0.05 | < 0.005 |
| CC(C)C1=C2[C@H]3CC[C@@H]4[C@@]5(C)CC[C@H](OC(=O)[C@H]6C[C@@H](C(=O)O)C6(C)C)C(C)(C)[C@@H]5CC[C@@]4(C)[C@]3(C)CC[C@@]2(NC(=O)C(C)(C)NC(=O)c2nccn2C)CC1=O [Example 16, (1R,3S)-3-((((3aR,5aR,5bR,7aR,9S,11aR,11bR,13aS)-1-isopropyl-5a,5b,8,8,11a-pentamethyl-3a-(2-methyl-2-(1-methyl-1H-imidazole-2-carboxamido)propanamido)-2-oxo-3,3a,4,5,5a,5b,6,7,7a,8,9,10,11,11a,11b,12,13,13a-octadecahydro-2H-cyclopenta[a]chrysen-9-yl)oxy)carbonyl)-2,2-dimethylcyclobutane-1-carboxylic acid] | < 0.003 | 0.05 to 0.2 | > 0.05 | 0.00501 to 0.01 |
| CC(C)C1=C2[C@H]3CC[C@@H]4[C@@]5(C)CC[C@H](OC(=O)[C@H]6C[C@@H](C(=O)O)C6(C)C)C(C)(C)[C@@H]5CC[C@@]4(C)[C@]3(C)CC[C@@]2(NC(=O)C(C)(C)NC(=O)c2cc(C(C)C)n[nH]2)CC1=O [Example 17, (1R,3S)-3-((((3aR,5aR,5bR,7aR,9S,11aR,11bR,13aS)-1-isopropyl-3a-(2-(3-isopropyl-1H-pyrazole-5-carboxamido)-2-methylpropanamido)-5a,5b,8,8,11a-pentamethyl-2-oxo-3,3a,4,5,5a,5b,6,7,7a,8,9,10,11,11a,11b,12,13,13a-octadecahydro-2H-cyclopenta[a]chrysen-9-yl)oxy)carbonyl)-2,2-dimethylcyclobutane-1-carboxylic acid] | < 0.003 | < 0.05 | < 0.01 | < 0.005 |
| Cc1cccnc1C(=O)NC(C)(C)C(=O)N[C@@]12CC[C@]3(C)[C@H](CC[C@@H]4[C@@]5(C)CC[C@H](OC(=O)[C@H]6C[C@@H](C(=O)O)C6(C)C)C(C)(C)[C@@H]5CC[C@]43C)C1=C(C(C)C)C(=O)C2 [Example 29, (1R,3S)-3-((((3aR,5aR,5bR,7aR,9S,11aR,11bR,13aS)-1-isopropyl-5a,5b,8,8,11a-pentamethyl-3a-(2-methyl-2-(3-methylpicolinamido)propanamido)-2-oxo-3,3a,4,5,5a,5b,6,7,7a,8,9,10,11,11a,11b,12,13,13a-octadecahydro-2H-cyclopenta[a]chrysen-9-yl)oxy)carbonyl)-2,2-dimethylcyclobutane-1-carboxylic acid] | – | – | 0.01 to 0.05 | < 0.005 |
| CC(C)C1=C2[C@H]3CC[C@@H]4[C@@]5(C)CC[C@H](OC(=O)[C@H]6C[C@@H](C(=O)O)C6(C)C)C(C)(C)[C@@H]5CC[C@@]4(C)[C@]3(C)CC[C@@]2(NC(=O)C(C)(C)NCCN(C)C)CC1=O [Example 73, (1R,3S)-3-((((3aR,5aR,5bR,7aR,9S,11aR,11bR,13aS)-3a-(2-((2-(dimethylamino)ethyl)amino)-2-methylpropanamido)-1-isopropyl-5a,5b,8,8,11a-pentamethyl-2-oxo-3,3a,4,5,5a,5b,6,7,7a,8,9,10,11,11a,11b,12,13,13a-octadecahydro-2H-cyclopenta[a]chrysen-9-yl)oxy)carbonyl)-2,2-dimethylcyclobutane-1-carboxylic acid] | < 0.003 | < 0.05 | – | – |
| CC(C)C1=C2[C@H]3CC[C@@H]4[C@@]5(C)CC[C@H](OC(=O)[C@H]6C[C@@H](C(=O)O)C6(C)C)C(C)(C)[C@@H]5CC[C@@]4(C)[C@]3(C)CC[C@@]2(NC(=O)C(C)(C)N)CC1=O [Example 74, (1R,3S)-3-((((3aR,5aR,5bR,7aR,9S,11aR,11bR,13aS)-3a-(2-amino-2-methylpropanamido)-1-isopropyl-5a,5b,8,8,11a-pentamethyl-2-oxo-3,3a,4,5,5a,5b, 6,7,7a,8,9,10,11,11a,11b,12,13,13a-octadecahydro-2H-cyclopenta[a]chrysen-9-yl)oxy)carbonyl)-2,2-dimethylcyclobutane-1-carboxylic acid hydrochloride] | < 0.003 | < 0.05 | – | – |
| CC(C)C1=C2[C@H]3CC[C@@H]4[C@@]5(C)CC[C@H](OC(=O)[C@H]6C[C@@H](C(=O)O)C6(C)C)C(C)(C)[C@@H]5CC[C@@]4(C)[C@]3(C)CC[C@@]2(NC(=O)C(C)(C)NC(=O)OC(C)(C)C)CC1=O [Example 75] | < 0.003 | < 0.05 | – | – |
| CC(C)C1=C2[C@H]3CC[C@@H]4[C@@]5(C)CC[C@H](OC(=O)[C@H]6C[C@@H](C(=O)O)C6(C)C)C(C)(C)[C@@H]5CC[C@@]4(C)[C@]3(C)CC[C@@]2(NC(=O)C(C)(C)NC(=O)[C@@H]2CCCN2)CC1=O [Example 76, (1R,3S)-3-((((3aR,5aR,5bR,7aR,9S,11aR,11bR,13aS)-1-isopropyl-5a,5b,8,8,11a-pentamethyl-3a-(2-methyl-2-((S)-pyrrolidine-2-carboxamido)propanamido)-2-oxo-3,3a,4,5,5a,5b,6,7,7a,8,9,10,11,11a,11b,12,13,13a-octadecahydro-2H-cyclopenta[a]chrysen-9-yl)oxy)carbonyl)-2,2-dimethylcyclobutane-1-carboxylic acid hydrochloride] | < 0.003 | 0.05 to 0.2 | – | – |
